Experimental data published in patent US11208410B2, “Heterocycle-bound condensed heterocyclic compound or salt thereof, agricultural and horticultural insecticide comprising the compound, and method for using the insecticide” (Nihon Nohyaku Co., Ltd., priority 2016, dated 2021).

Tests used:
Plutella xylostella = assay: Insecticidal test on Plutella xylostella (dip of Chinese cabbage seedlings with laid eggs); format: in vivo; settings: 144 h, seedlings with laid eggs dipped about 30 seconds, 25° C., 6 days after dip treatment, read-out: insecticidal effect (corrected mortality rate), activity level
Text: Insecticidal Test on Plutella xylostella
Adults of Plutella xylostella were released onto Chinese cabbage seedlings and allowed to lay eggs thereon. At 2 days after the release of the adults, the Chinese cabbage seedlings with laid eggs were dipped for about 30 seconds in agrochemical dispersions diluted to 500 ppm, each of which contained a different kind of heterocycle-bound condensed heterocyclic compound represented by the general formula (1) of the present invention as an active ingredient. After air-dried, the seedlings were kept in a thermostatic chamber at 25° C. At 6 days after the dip treatment, the number of hatched larvae per plot was counted, the mortality rate was calculated according to the formula shown below, and the insecticidal effect was evaluated according to the criteria of Test Example 2. This test was conducted in triplicate using 10 adults of Plutella xylostella per plot. Corrected mortality rate (%)=100×(Number of hatched larvae in a non-treatment plot−Number of hatched larvae in a treatment plot)/Number of hatched larvae in a non-treatment plot [Math. 3]

Laodelphax striatella = assay: Insecticidal test on Laodelphax striatella (rice seedling dip); format: in vivo; settings: Laodelphax striatellus, 192 h, rice seedlings dipped 30 seconds, 3rd-instar larvae, 8 days after inoculation, read-out: insecticidal effect (corrected mortality rate), activity level
Text: Insecticidal test on Laodelphax striatella
The heterocycle-bound condensed heterocyclic compounds represented by the general formula (1) of the present invention or salts thereof were separately dispersed in water and diluted to 500 ppm. Rice plant seedlings (variety: Nihonbare) were dipped in the agrochemical dispersions for 30 seconds. After air-dried, each seedling was put into a separate glass test tube and inoculated with ten 3rd-instar larvae of Laodelphax striatella, and then the glass test tubes were capped with cotton plugs. At 8 days after the inoculation, the numbers of surviving larvae and dead larvae were counted, the corrected mortality rate was calculated according to the formula shown below, and the insecticidal effect was evaluated according to the criteria shown below. Corrected mortality rate (%)=100×(Survival rate in a non-treatment plot−Survival rate in a treatment plot)/Survival rate in a non-treatment plot [Math. 2] Criteria A: the corrected mortality rate is 100%. B: the corrected mortality rate is 90 to 99%. C: the corrected mortality rate is 80 to 89%. D: the corrected mortality rate is 50 to 79%.

Structure (SMILES)	mortality at 500 ppm (Plutella xylostella)	mortality at 500 ppm (Laodelphax striatella)
CCS(=O)(=O)c1cc(-c2noc(C(F)(F)F)n2)cnc1-c1nc2cc(C(F)(F)C(F)(F)F)nnc2n1C [Compound 1-41, 3-{2-(3-Methyl-6-pentafluoroethyl-3H-imidazo[4,5-C]pyridazin-2-yl)-3-(ethylsulfonyl)pyridin-5-yl}-5-trifluoromethyl-1,2,4-oxadiazole]	100%	100%
CCS(=O)(=O)c1cc(-c2nc(-c3ccccc3)no2)cnc1-c1nc2cc(C(F)(F)C(F)(F)F)nnc2n1C [Compound 2-56, 5-{2-(3-Methyl-6-pentafluoroethyl-3H-imidazo[4,5-C]pyridazin-2-yl)-3-(ethylsulfonyl)pyridin-5-yl}-3-phenyl-1,2,4-oxadiazole]	100%	100%
